These results are taken from PubChem BioAssay (NCI).

Molecules are shown by their SMILES. “And” between values parts separate entries of the source, which are not always exact repeats. Equal entries are not always repeated.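 Each compound was tested at five concentrations against cells in 96-well plates for 48 hours. Here, GI50 denotes the concentration required for 50% inhibition of growth. TGI is the concentration that stops growth completely.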

In the first assay the test system is HOP-18 NSCLC. In words: NCI tumour cell line growth inhibition, 48 h.
On to `CC(=O)[O][Ga]([Br])[O]C(C)=O`, for which the GI50 is > 100 µM and the TGI was > 100 µM.

With `COc1cc2c(OC)cc1CSCc1sc(C)c(c1Br)CSC2`, the TGI was > 100 µM. Consider `CC(C)N(C(=O)C12C3C4C1(I)C1C2C3(I)C41C(=O)N(C(C)C)C(C)C)C(C)C` (configuration not stated), for which the TGI was > 100 µM. Same read-out and setting: then `CC1COC(C)(C)P(=O)(c2ccccc2)C1` (configuration not stated), with > 100 µM; and `CCOP(=O)(OCC)OC1C=CC2CCC1C2` (configuration not stated), with > 100 µM; and `COc1cc(C=O)c(-c2cc(OC)c(OC)cc2C=O)cc1OC`, with > 100 µM. Regarding `N#CC(C(=O)C(=O)Nc1ccc(Cl)cc1)c1ccccc1` (configuration not stated), the TGI is > 100 µM. Turning to `COc1c[c]([Hg][O]C(C)=O)c(OC)c(NC(=O)CC(C)=O)[c]1[Hg][O]C(C)=O`, the GI50 was 1.96 µM and the TGI worked out at 4.62 µM. With `O=C(/C=C/c1ccccc1Cl)NC1C=Nc2ccc([N+](=O)[O-])cc2NC1` (configuration not stated), the TGI was > 100 µM. For the compound `CC[C@H]1CN2CCc3cc(OC)c(OC)cc3[C@@H]2C[C@@H]1C[C@H]1NCCc2c1[nH]c1ccc(O)cc21`, the GI50 was 0.188 µM and 0.0283 µM; the TGI is 0.711 µM and 0.0824 µM and 0.449 µM. As to `Cc1ccc(C)c(N=C2NC(=O)C(CC(=O)Nc3ccc(Cl)cc3Cl)S2)c1` (configuration not stated), the TGI was > 100 µM. On to `O=C(O)CC(NC(=O)CP(=O)(O)O)C(=O)O` (configuration not stated), for which the TGI is > 9690 µM. Still for that read-out and setting: the value for `COC(=O)/C=C/c1c(CC=C(C)C)ncn1C` was > 100 µM.

For the compound `CC(C)C(=O)Nc1nc2c(ncn2C2OC(CO)C(O)C2O)c(=O)[nH]1` (configuration not stated), the TGI is > 100 µM. With `O=Cc1ccc2c(c1-c1c(C=O)ccc3c1OCO3)OCO2`, the TGI was > 100 µM. On the same count and under the same terms, the value for `CC(=O)O[C@H]1CCC2[C@@H]3CCC4Nc5[nH]ncc5C[C@]4(C)C3CC[C@@]21C` (some centres not stated) was > 100 µM. On the same count and under the same terms, the value for `Cc1cc(C)nc(NS(=O)(=O)c2ccc(NC(=O)c3cccc4c(Nc5ccc(S(N)(=O)=O)cc5)c5ccccc5nc34)cc2)n1` was > 100 µM; that for `Cc1cc(S(=O)(=O)O)c(NC(=O)C(=O)Cc2cc(=O)oc3cc(O)ccc23)cc1Cl` was > 100 µM.

The next assay deals with KM20L2 colon. In words: NCI tumour cell line growth inhibition, 48 h.
Take `CC(C)C(=O)NS(=O)(=O)c1ccccc1`: the TGI was > 100 µM. In turn, `COC1(OC)CC2C(=O)N(Cc3ccccc3)C1C=C2S(=O)(=O)c1ccccc1` (configuration not stated) came in with a TGI of 33.1 µM. For the compound `CC(=O)[O][Ga]([Br])[O]C(C)=O`, the GI50 was > 100 µM and the TGI was > 100 µM. Turning to `COc1cc2c(OC)cc1CSCc1sc(C)c(c1Br)CSC2`, the TGI is > 100 µM. The same measure, in the same setting: the value for `CC(C)N(C(=O)C12C3C4C1(I)C1C2C3(I)C41C(=O)N(C(C)C)C(C)C)C(C)C` (configuration not stated) was > 100 µM; that for `Cc1cccc(C)c1NC(=O)C(=O)C(C(=O)c1ccccc1-c1ccccc1)C1OC(=O)c2ccccc21` (configuration not stated) was 67.7 µM; that for `CC1COC(C)(C)P(=O)(c2ccccc2)C1` (configuration not stated) was > 100 µM. The same measure, in the same setting: then `Cc1ccc(S(=O)(=O)c2ccc(N)cc2)cc1`, with > 100 µM; and `CCOP(=O)(OCC)OC1C=CC2CCC1C2` (configuration not stated), with > 100 µM; and `COC(=O)[C@H]1C=C[C@@H](C)n2c(=O)c3cc4ccccc4cc3c(=O)n21`, with > 100 µM.

Regarding `COc1cc(C=O)c(-c2cc(OC)c(OC)cc2C=O)cc1OC`, the TGI is > 100 µM. On the same count and under the same terms, the value for `N#CC(C(=O)C(=O)Nc1ccc(Cl)cc1)c1ccccc1` (configuration not stated) was > 100 µM. Take `COc1c[c]([Hg][O]C(C)=O)c(OC)c(NC(=O)CC(C)=O)[c]1[Hg][O]C(C)=O`: the GI50 is 14.2 µM and the TGI amounted to 30.9 µM.

As to `COC(=O)/C=C1\CCC(C)O1` (configuration not stated), the TGI is > 100 µM. Turning to `O=C(/C=C/c1ccccc1Cl)NC1C=Nc2ccc([N+](=O)[O-])cc2NC1` (configuration not stated), the TGI was > 100 µM. With `CC[C@H]1CN2CCc3cc(OC)c(OC)cc3[C@@H]2C[C@@H]1C[C@H]1NCCc2c1[nH]c1ccc(O)cc21`, the GI50 is 0.0317 µM and 0.0549 µM; the TGI was 0.0858 µM and 0.47 µM and 0.241 µM. Take `CCCO/S(=N\S(=O)(=O)c1ccccc1)c1ccccc1[N+](=O)[O-]` (configuration not stated): the TGI was > 100 µM.

Turning to `Cc1ccc(C)c(N=C2NC(=O)C(CC(=O)Nc3ccc(Cl)cc3Cl)S2)c1` (configuration not stated), the TGI was > 100 µM. As to `C/C(CC(=O)Nc1cccc(Cl)c1C)=N\NC(=O)c1ccncc1`, the TGI was > 100 µM. As for `Cc1cc(NS(=O)(=O)c2ccc(Nc3c4ccccc4nc4c(C(=O)N5CCN(CCO)CC5)ccc(Cl)c34)cc2)no1`, the TGI was > 100 µM. The same measure, in the same setting: then `O=C(O)CC(NC(=O)CP(=O)(O)O)C(=O)O` (configuration not stated), with > 10000 µM; and `Cc1nc([N+](=O)[O-])cn1CC(=N)N`, with > 100 µM; and `COC(=O)/C=C/c1c(CC=C(C)C)ncn1C`, with > 65.8 µM.

As to `CC(C)C(=O)Nc1nc2c(ncn2C2OC(CO)C(O)C2O)c(=O)[nH]1` (configuration not stated), the TGI is > 100 µM.

For `O=S(=O)(c1ccccc1)C1CN2OC1(S(=O)(=O)c1ccccc1)CC2c1ccc(Br)cc1` (configuration not stated), the TGI was > 100 µM. Same read-out and setting: the value for `O=Cc1ccc2c(c1-c1c(C=O)ccc3c1OCO3)OCO2` was > 100 µM. Still for that read-out and setting: the value for `CC(=O)O[C@H]1CCC2[C@@H]3CCC4Nc5[nH]ncc5C[C@]4(C)C3CC[C@@]21C` (some centres not stated) was > 100 µM; that for `Cc1cc(C)nc(NS(=O)(=O)c2ccc(NC(=O)c3cccc4c(Nc5ccc(S(N)(=O)=O)cc5)c5ccccc5nc34)cc2)n1` was > 100 µM; that for `Cc1cc(S(=O)(=O)O)c(NC(=O)C(=O)Cc2cc(=O)oc3cc(O)ccc23)cc1Cl` was > 100 µM.

A further assay has as its system M19-MEL melanoma. In words: NCI tumour cell line growth inhibition, 48 h.
Turning to `CC(C)C(=O)NS(=O)(=O)c1ccccc1`, the TGI was > 100 µM.

Turning to `COC1(OC)CC2C(=O)N(Cc3ccccc3)C1C=C2S(=O)(=O)c1ccccc1` (configuration not stated), the TGI was determined as 30.4 µM. As to `CC(=O)[O][Ga]([Br])[O]C(C)=O`, the GI50 is > 100 µM and the TGI was > 100 µM.
